Data published in patent publication US20110118238A1, “2-ANILINOPURIN-8-ONES AS INHIBITORS OF TTK/MPS1 FOR THE TREATMENT OF PROLIFERATIVE DISORDERS” (ASTRAZENECA AB, priority 2007, published 2011).

Tests used:
[1] = target: T1, N-terminal GST tagged full length human TTK kinase (Homo sapiens, UniProt P33981); experiment: In Vitro TTK Kinase Assay 1 (AlphaScreen); assay type: biochemical; conditions: recombinant TTK, 10 μM ATP, read-out: EAA: Enzyme Assay Activity (In Vitro TTK kinase assay 1)
T1 construct: N-terminal GST tagged full length human TTK kinase; GST (N); made in house; host or cells: insect cells
T1 sequence (P33981 1-857): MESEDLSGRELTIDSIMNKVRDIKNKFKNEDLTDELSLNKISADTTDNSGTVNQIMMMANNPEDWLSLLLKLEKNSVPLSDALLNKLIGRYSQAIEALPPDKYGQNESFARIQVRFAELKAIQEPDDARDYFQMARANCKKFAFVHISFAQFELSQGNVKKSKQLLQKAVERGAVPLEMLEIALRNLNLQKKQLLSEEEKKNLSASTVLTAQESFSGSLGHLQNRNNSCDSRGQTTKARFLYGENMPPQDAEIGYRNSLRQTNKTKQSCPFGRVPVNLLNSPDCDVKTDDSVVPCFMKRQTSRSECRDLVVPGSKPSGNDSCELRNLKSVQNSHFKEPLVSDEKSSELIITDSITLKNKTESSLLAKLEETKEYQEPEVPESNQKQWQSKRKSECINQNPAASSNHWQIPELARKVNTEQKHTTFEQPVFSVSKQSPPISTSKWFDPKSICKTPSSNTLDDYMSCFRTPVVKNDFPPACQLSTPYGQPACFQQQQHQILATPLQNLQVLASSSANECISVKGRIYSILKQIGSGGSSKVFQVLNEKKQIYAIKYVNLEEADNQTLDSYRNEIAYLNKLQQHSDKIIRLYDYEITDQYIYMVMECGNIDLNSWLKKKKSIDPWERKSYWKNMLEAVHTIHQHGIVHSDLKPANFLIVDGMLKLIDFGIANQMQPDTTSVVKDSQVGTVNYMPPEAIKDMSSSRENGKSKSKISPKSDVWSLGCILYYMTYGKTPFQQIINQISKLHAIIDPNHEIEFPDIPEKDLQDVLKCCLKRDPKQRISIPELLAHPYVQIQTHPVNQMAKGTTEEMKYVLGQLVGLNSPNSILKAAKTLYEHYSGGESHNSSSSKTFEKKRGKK
Description: Aliquots (2 μL) of each compound dilution were placed into wells of a Greiner 384-well low volume white polystyrene plate (Greiner Bio-one).
The resultant signals arising from laser light excitation at 680 nm were read using a Packard Envision instrument.

[2] = target: T1, N-terminal GST tagged full length human TTK kinase; experiment: In Vitro TTK Kinase Assay 2 (Caliper LabChip LC3000); assay type: biochemical; conditions: recombinant TTK, 12 μM ATP, read-out: EAA2: Enzyme Assay Activity (In Vitro TTK kinase assay 2)
Description: Each reaction was stopped by the addition of EDTA to a concentration of 40 mM in a solution which also comprised 0.1% coating reagent (Caliper LS), 100 mM HEPES pH 7.5, 0.015% v/v Brij™-35 and 5% DMSO. The stopped enzyme reactions were sipped through capillaries onto a Caliper chip where the peptide substrate and phosphorylated product were separated and detected via laser-induced fluorescence.

## COc1cc(NS(C)(=O)=O)ccc1Nc1ncc2c(n1)n(C1CCCC1)c(=O)n2C [Example 7, N-{4-[(9-Cyclopentyl-7-methyl-8-oxo-8,9-dihydro-7H-purin-2-yl)-amino]-3-methoxyphenyl}methanesulfonamide]
[1]
  IC50: 714 nM
[2]
  IC50: 30.7 nM

## CNC(=O)c1ccc(Nc2ncc3c(n2)n(C2CCCC2)c(=O)n3C)c(OC)c1 [Example 9, 4-[(9-Cyclopentyl-7-methyl-8-oxo-8,9-dihydro-7H-purin-2-yl)amino]-3-methoxy-N-methylbenzamide]
[1]
  IC50: 328 nM
[2]
  IC50: 32.2 nM

## Cn1c(=O)n(C2CCCC2)c2nc(Nc3ccc(N4CCS(=O)(=O)CC4)cc3)ncc21 [Example 12, 9-Cyclopentyl-2-{[4-(1,1-dioxidothiomorpholin-4-yl)-phenyl]-amino}-7-methyl-7,9-dihydro-8H-purin-8-one]
[1]
  IC50: 1170 nM
[2]
  IC50: 15.2 nM

## 4-[(9-Cyclopentyl-7-ethyl-8-oxo-8,9-dihydro-7H-purin-2-yl)-amino]-3-methoxy-N-(1-methylpiperidin-4-yl)benzamide [Example 33]
[1]
  IC50: 398 nM
[2]
  IC50: 38.2 nM

## CCOc1cc(OC2CCN(C)CC2)ccc1Nc1ncc2c(n1)n(C1CCCC1)c(=O)n2C [Example 26, 9-Cyclopentyl-2-({2-ethoxy-4-[(1-methylpiperidin-4-yl)-oxy]-phenyl}amino)-7-methyl-7,9-dihydro-8H-purin-8-one]
[1]
  IC50: 50.9 nM
[2]
  IC50: 26 nM

## Cn1c(=O)n(C2CCCC2)c2nc(Nc3ccc(S(N)(=O)=O)cc3)ncc21 [Example 11, 4-[(9-Cyclopentyl-7-methyl-8-oxo-8,9-dihydro-7H-purin-2-yl)-amino]benzenesulfonamide]
[1]
  IC50: 9650 nM
[2]
  IC50: 167 nM

## CCn1c(=O)n(C2CCCC2)c2nc(Nc3ccc(OC4CCN(C)CC4)cc3OC)ncc21 [Example 30, 9-Cyclopentyl-7-ethyl-2-({2-methoxy-4-[(1-methylpiperidin-4-yl)-oxy]phenyl}amino)-7,9-dihydro-8H-purin-8-one]
[1]
  IC50: 91.3 nM
[2]
  IC50: 10.8 nM

## CCOc1cc(OCCN(C)C)ccc1Nc1ncc2c(n1)n(C1CCCC1)c(=O)n2C [Example 25, 9-Cyclopentyl-2-({4-[2-(dimethylamino)ethoxy]-2-ethoxy-phenyl}-amino)-7-methyl-7,9-dihydro-8H-purin-8-one]
[1]
  IC50: 149 nM
[2]
  IC50: 28.9 nM

## N#CCn1c(=O)n(C2CCCC2)c2nc(Nc3ccc(S(N)(=O)=O)cc3)ncc21 [Example 38, 4-{[7-(Cyanomethyl)-9-cyclopentyl-8-oxo-8,9-dihydro-7H-purin-2-yl]amino}benzenesulfonamide]
[1]
  IC50: 1510 nM
[2]
  IC50: 131 nM

## COc1cc(C(=O)N2CCCC2)ccc1Nc1ncc2c(n1)n(C1CCCC1)c(=O)n2C [Example 10, 9-Cyclopentyl-2-{[2-methoxy-4-(pyrrolidin-1-ylcarbonyl)-phenyl]amino}-7-methyl-7,9-dihydro-8H-purin-8-one]
[1]
  IC50: 1050 nM
[2]
  IC50: 19.4 nM

## CCn1c(=O)n(C2CCCC2)c2nc(Nc3ccc(S(C)(=O)=O)cc3OC)ncc21 [Example 32, 9-Cyclopentyl-7-ethyl-2-{[2-methoxy-4-(methylsulfonyl)-phenyl]-amino}-7,9-dihydro-8H-purin-8-one]
[1]
  IC50: 1330 nM
[2]
  IC50: 24.5 nM

## COc1cc(N2CCN(C)CC2)ccc1Nc1ncc2c(n1)n(C1CCCC1)c(=O)n2CC#N [Example 36, (9-Cyclopentyl-2-{[2-methoxy-4-(4-methylpiperazin-1-yl)-phenyl]-amino}-8-oxo-8,9-dihydro-7H-purin-7-yl)acetonitrile]
[1]
  IC50: 217 nM
[2]
  IC50: 21.6 nM

## COc1cc(C2CCN(C)CC2)ccc1Nc1ncc2c(n1)n(C(C)C)c(=O)n2C [Example 47, 9-Isopropyl-2-{[2-methoxy-4-(1-methylpiperidin-4-yl)phenyl]-amino}-7-methyl-7,9-dihydro-8H-purin-8-one]
[1]
  IC50: 5650 nM

## COc1cc(N2CCCN(C)CC2)ccc1Nc1ncc2c(n1)n(C1CCCC1)c(=O)n2C [Example 20, 9-Cyclopentyl-2-{[2-methoxy-4-(4-methyl-1,4-diazepan-1-yl)-phenyl]amino}-7-methyl-7,9-dihydro-8H-purin-8-one]
[1]
  IC50: 249 nM
[2]
  IC50: 39.5 nM

## CCn1c(=O)n(C2CCCC2)c2nc(Nc3ccc(N4CCN(C)CC4)cc3OC)ncc21 [Example 29, 9-Cyclopentyl-7-ethyl-2-{[2-methoxy-4-(4-methylpiperazin-1-yl)-phenyl]amino}-7,9-dihydro-8H-purin-8-one]
[1]
  IC50: 220 nM
[2]
  IC50: 53.8 nM

## CN1CCC(NC(=O)c2ccc(Nc3ncc4c(n3)n(C3CCCC3)c(=O)n4C)cc2F)CC1 [Example 8, 4-[(9-Cyclopentyl-7-methyl-8-oxo-8,9-dihydro-7H-purin-2-yl)-amino]-2-fluoro-N-(1-methylpiperidin-4-yl)benzamide]
[1]
  IC50: 3910 nM
[2]
  IC50: 633 nM

## COc1cc(C(=O)NCCCN(C)C)ccc1Nc1ncc2c(n1)n(C1CCCC1)c(=O)n2C [Example 62, 4-[(9-Cyclopentyl-7-methyl-8-oxo-8,9-dihydro-7H-purin-2-yl)-amino]-N-[3-(dimethylamino)propyl]-3-methoxybenzamide]
[2]
  IC50: 50.9 nM

## Cn1c(=O)n(C2CCCC2)c2nc(Nc3ccc(N4CCCCC4)cc3)ncc21 [Example 77, 9-Cyclopentyl-7-methyl-2-[(4-piperidin-1-ylphenyl)amino]-7,9-dihydro-8H-purin-8-one]
[2]
  IC50: 109 nM

## Cn1c(=O)n(C2CCCC2)c2nc(Nc3ccc(CCO)cc3)ncc21 [Example 73, 9-Cyclopentyl-2-{[4-(2-hydroxyethyl)phenyl]amino}-7-methyl-7,9-dihydro-8H-purin-8-one]
[2]
  IC50: 106 nM

## COc1cc(OC2CCN(C)C2)ccc1Nc1ncc2c(n1)n(C(C)C)c(=O)n2C (stereo not shown) [Example 43, 9-Isopropyl-2-({2-methoxy-4-[(1-methylpyrrolidin-3-yl)oxy]-phenyl}amino)-7-methyl-7,9-dihydro-8H-purin-8-one]
[2]
  IC50: 115 nM

## COc1cc(C(=O)NCCCCN(C)C)ccc1Nc1ncc2c(n1)n(C1CCCC1)c(=O)n2C [Example 61, 4-[(9-Cyclopentyl-7-methyl-8-oxo-8,9-dihydro-7H-purin-2-yl)-amino]-N-[4-(dimethylamino)butyl]-3-methoxybenzamide]
[2]
  IC50: 53.6 nM

## Cn1c(=O)n(C2CCCC2)c2nc(Nc3ccc(-n4cccn4)cc3)ncc21 [Example 79, 9-Cyclopentyl-7-methyl-2-{[4-(1H-pyrazol-1-yl)phenyl]amino}-7,9-dihydro-8H-purin-8-one]
[2]
  IC50: 45.2 nM

## COc1cc(C(=O)NCCCCN2CCCC2)ccc1Nc1ncc2c(n1)n(C1CCCC1)c(=O)n2C [Example 66, 4-[(9-Cyclopentyl-7-methyl-8-oxo-8,9-dihydro-7H-purin-2-yl)-amino]-3-methoxy-N-(4-pyrrolidin-1-ylbutyl)benzamide]
[2]
  IC50: 132 nM

## Cn1c(=O)n(C2CCCC2)c2nc(Nc3ccc(Oc4ccccc4)cc3)ncc21 [Example 75, 9-Cyclopentyl-7-methyl-2-[(4-phenoxyphenyl)amino]-7,9-dihydro-8H-purin-8-one]
[2]
  IC50: 523 nM

## COc1cc(C(=O)N(C)CCCN(C)C)ccc1Nc1ncc2c(n1)n(C1CCCC1)c(=O)n2C [Example 54, 4-[(9-Cyclopentyl-7-methyl-8-oxo-8,9-dihydro-7H-purin-2-yl)-amino]-N-[3-(dimethylamino)propyl]-3-methoxy-N-methylbenzamide]
[2]
  IC50: 36.2 nM

## COc1cc(C(=O)NC2CCC(N(C)C)CC2)ccc1Nc1ncc2c(n1)n(C1CCCC1)c(=O)n2C (stereo not shown) [Example 58]
[2]
  IC50: 136 nM

## Cn1c(=O)n(C2CCCC2)c2nc(Nc3ccc(C(=O)c4ccccc4)cc3)ncc21 [Example 71, 2-[(4-Benzoylphenyl)amino]-9-cyclopentyl-7-methyl-7,9-dihydro-8H-purin-8-one]
[2]
  IC50: 586 nM

## COCCN1CCC(NC(=O)c2ccc(Nc3ncc4c(n3)n(C3CCCC3)c(=O)n4C)c(OC)c2)CC1 [Example 59, 4-[(9-Cyclopentyl-7-methyl-8-oxo-8,9-dihydro-7H-purin-2-yl)-amino]-3-methoxy-N-[1-(2-methoxyethyl)piperidin-4-yl]benzamide]
[2]
  IC50: 74.5 nM
